# Target: T1, N-arachidonyl glycine receptor (Homo sapiens) (UniProt Q14330)
# T1 sequence (whole entry): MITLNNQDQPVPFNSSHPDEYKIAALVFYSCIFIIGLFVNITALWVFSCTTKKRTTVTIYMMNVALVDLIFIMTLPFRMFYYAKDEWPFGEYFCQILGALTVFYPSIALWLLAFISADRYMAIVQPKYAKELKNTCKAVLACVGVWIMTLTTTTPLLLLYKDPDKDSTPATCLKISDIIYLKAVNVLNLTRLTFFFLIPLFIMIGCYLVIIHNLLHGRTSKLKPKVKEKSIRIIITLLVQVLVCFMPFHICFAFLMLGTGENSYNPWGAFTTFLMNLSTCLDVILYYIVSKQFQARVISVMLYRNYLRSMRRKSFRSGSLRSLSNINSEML
# Test: Antagonist activity against human GPR18 expressed in CHO cells assessed as reduction in delta9-THC-induced beta-arrestin recruitment at 10 uM by beta-galactosidase enzyme fragment complementation method
# Assay type: cell-based
row,SMILES,inhibition [%]
1,CCCCC/C=C\C/C=C\C/C=C\C/C=C\CCCC(=O)NCC(=O)O [ARACHIDONOYL GLYCINE],0
2,COc1ccc(/C=C2\N=C3SCCCN3C2=O)cc1OC,2
3,COc1ccccc1/C=C1\N=C2SCCCN2C1=O,0
4,COc1ccc(/C=C2\N=C3SCCCN3C2=O)cc1,10
5,CCOC(=O)C1CN2C(=NC(=O)C2(c2ccccc2)c2ccccc2)S1 (configuration not stated),0
6,CN(C)c1ccc(/C=C2\N=C3SCCCN3C2=O)cc1,13

# Target: Cannabinoid receptor 1 (Rattus norvegicus, UniProt P20272)
# Sequence (P20272 whole entry): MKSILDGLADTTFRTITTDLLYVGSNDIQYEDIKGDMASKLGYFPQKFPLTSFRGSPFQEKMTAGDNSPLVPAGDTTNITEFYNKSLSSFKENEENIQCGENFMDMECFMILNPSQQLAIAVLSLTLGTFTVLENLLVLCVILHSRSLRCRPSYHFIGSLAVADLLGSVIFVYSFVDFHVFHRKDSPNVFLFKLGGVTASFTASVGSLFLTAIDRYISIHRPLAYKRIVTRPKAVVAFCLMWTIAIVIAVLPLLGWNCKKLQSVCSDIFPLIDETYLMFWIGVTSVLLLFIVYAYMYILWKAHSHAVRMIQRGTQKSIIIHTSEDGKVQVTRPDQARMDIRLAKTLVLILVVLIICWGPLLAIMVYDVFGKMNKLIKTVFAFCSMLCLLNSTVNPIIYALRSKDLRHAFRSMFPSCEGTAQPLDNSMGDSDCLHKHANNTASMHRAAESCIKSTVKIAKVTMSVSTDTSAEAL
# Test: Displacement of [3H]CP55,940 from CB1 receptor in rat brain cortical membranes
# Assay type: cell membranes
row,SMILES,Ki [µM]
1,COc1ccc(/C=C2\N=C3SCCCN3C2=O)cc1OC,> 10
2,COc1ccccc1/C=C1\N=C2SCCCN2C1=O,> 10
3,COc1ccc(/C=C2\N=C3SCCCN3C2=O)cc1,> 10
4,CCOC(=O)C1CN2C(=NC(=O)C2(c2ccccc2)c2ccccc2)S1 (configuration not stated),> 10
5,CN(C)c1ccc(/C=C2\N=C3SCCCN3C2=O)cc1,> 10

# Target: T2, G-protein coupled receptor 55 (Homo sapiens, UniProt Q9Y2T6)
# T2 sequence (Q9Y2T6 whole entry, the tested form may be a part): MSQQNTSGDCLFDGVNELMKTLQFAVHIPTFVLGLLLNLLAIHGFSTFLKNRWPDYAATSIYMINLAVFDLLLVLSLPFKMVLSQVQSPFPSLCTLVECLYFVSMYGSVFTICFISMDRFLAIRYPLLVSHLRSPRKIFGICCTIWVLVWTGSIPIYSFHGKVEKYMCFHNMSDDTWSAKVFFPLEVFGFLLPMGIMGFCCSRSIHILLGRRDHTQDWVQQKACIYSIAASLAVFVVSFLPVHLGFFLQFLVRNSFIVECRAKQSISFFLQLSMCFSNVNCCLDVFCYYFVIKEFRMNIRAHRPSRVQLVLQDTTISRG
# Test: Antagonist activity against human GPR55 expressed in CHO cells assessed as reduction in LPI-induced beta-arrestin recruitment at 10 uM by beta-galactosidase enzyme fragment complementation method
# Assay type: cell-based
row,SMILES,inhibition [%]
1,CCCCC/C=C\C/C=C\C/C=C\C/C=C\CCCC(=O)NCC(=O)O [ARACHIDONOYL GLYCINE],6
2,COc1ccc(/C=C2\N=C3SCCCN3C2=O)cc1OC,12
3,COc1ccccc1/C=C1\N=C2SCCCN2C1=O,33
4,COc1ccc(/C=C2\N=C3SCCCN3C2=O)cc1,16
5,CCOC(=O)C1CN2C(=NC(=O)C2(c2ccccc2)c2ccccc2)S1 (configuration not stated),41
6,CN(C)c1ccc(/C=C2\N=C3SCCCN3C2=O)cc1,13

# Target: T3, Cannabinoid receptor 2 (Homo sapiens, UniProt P34972)
# T3 sequence (P34972 whole entry): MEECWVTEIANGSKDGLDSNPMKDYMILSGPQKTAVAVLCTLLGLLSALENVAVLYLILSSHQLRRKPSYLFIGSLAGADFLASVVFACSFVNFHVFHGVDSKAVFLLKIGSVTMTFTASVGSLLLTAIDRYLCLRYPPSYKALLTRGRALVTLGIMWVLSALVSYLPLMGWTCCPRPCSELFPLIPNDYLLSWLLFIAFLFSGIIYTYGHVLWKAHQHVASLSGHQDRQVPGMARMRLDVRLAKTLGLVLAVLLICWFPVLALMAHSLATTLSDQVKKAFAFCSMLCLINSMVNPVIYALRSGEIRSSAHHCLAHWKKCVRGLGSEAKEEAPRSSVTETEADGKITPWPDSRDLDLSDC
# Test: Displacement of [3H]CP55,940 from human recombinant CB2 receptor expressed in HEK293 cells at 10 uM
# Assay type: cell-based
row,SMILES,inhibition [%]
1,CCCCC/C=C\C/C=C\C/C=C\C/C=C\CCCC(=O)NCC(=O)O [ARACHIDONOYL GLYCINE],36
2,COc1ccc(/C=C2\N=C3SCCCN3C2=O)cc1OC,18
3,COc1ccccc1/C=C1\N=C2SCCCN2C1=O,27
4,COc1ccc(/C=C2\N=C3SCCCN3C2=O)cc1,6
5,CCOC(=O)C1CN2C(=NC(=O)C2(c2ccccc2)c2ccccc2)S1 (configuration not stated),-5

# Target: T3, Cannabinoid receptor 2
# Test: Displacement of [3H]CP55,940 from human recombinant CB2 receptor expressed in HEK293 cells
# Assay type: cell-based
row,SMILES,Ki [µM]
1,CCCCC/C=C\C/C=C\C/C=C\C/C=C\CCCC(=O)NCC(=O)O [ARACHIDONOYL GLYCINE],> 10
2,COc1ccc(/C=C2\N=C3SCCCN3C2=O)cc1OC,> 10
3,COc1ccccc1/C=C1\N=C2SCCCN2C1=O,> 10
4,COc1ccc(/C=C2\N=C3SCCCN3C2=O)cc1,> 10
5,CCOC(=O)C1CN2C(=NC(=O)C2(c2ccccc2)c2ccccc2)S1 (configuration not stated),> 10
6,CN(C)c1ccc(/C=C2\N=C3SCCCN3C2=O)cc1,16.6

# Target: T2, G-protein coupled receptor 55
# Test: Antagonist activity against human GPR55 expressed in CHO cells assessed as reduction in LPI-induced beta-arrestin recruitment by beta-galactosidase enzyme fragment complementation method
# Assay type: cell-based
row,SMILES,IC50 [µM]
1,CCCCC/C=C\C/C=C\C/C=C\C/C=C\CCCC(=O)NCC(=O)O [ARACHIDONOYL GLYCINE],> 10
2,COc1ccc(/C=C2\N=C3SCCCN3C2=O)cc1OC,> 10
3,COc1ccccc1/C=C1\N=C2SCCCN2C1=O,> 10
4,COc1ccc(/C=C2\N=C3SCCCN3C2=O)cc1,> 10
5,CCOC(=O)C1CN2C(=NC(=O)C2(c2ccccc2)c2ccccc2)S1 (configuration not stated),> 10
6,CN(C)c1ccc(/C=C2\N=C3SCCCN3C2=O)cc1,> 10

# Target: T4, Cannabinoid receptor 1 (Homo sapiens, UniProt P21554)
# T4 sequence (P21554 whole entry): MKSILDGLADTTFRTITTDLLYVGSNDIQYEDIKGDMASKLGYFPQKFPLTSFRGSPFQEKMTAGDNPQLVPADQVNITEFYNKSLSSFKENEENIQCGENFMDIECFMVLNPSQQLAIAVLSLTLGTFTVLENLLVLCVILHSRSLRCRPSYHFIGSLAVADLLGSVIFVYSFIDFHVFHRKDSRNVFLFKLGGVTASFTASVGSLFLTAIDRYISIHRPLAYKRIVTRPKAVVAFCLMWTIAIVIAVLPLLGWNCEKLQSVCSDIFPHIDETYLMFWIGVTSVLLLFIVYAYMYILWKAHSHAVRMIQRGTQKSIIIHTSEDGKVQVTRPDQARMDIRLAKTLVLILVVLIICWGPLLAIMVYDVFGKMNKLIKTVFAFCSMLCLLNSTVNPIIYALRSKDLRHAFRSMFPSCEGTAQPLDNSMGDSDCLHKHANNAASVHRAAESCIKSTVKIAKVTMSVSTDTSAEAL
# Test: Displacement of [3H]CP55,940 from human recombinant CB1 receptor expressed in CHO-K1 cells at 10 uM
# Assay type: cell-based
row,SMILES,inhibition [%]
1,CCCCC/C=C\C/C=C\C/C=C\C/C=C\CCCC(=O)NCC(=O)O [ARACHIDONOYL GLYCINE],43
2,COc1ccc(/C=C2\N=C3SCCCN3C2=O)cc1OC,7
3,COc1ccccc1/C=C1\N=C2SCCCN2C1=O,4
4,COc1ccc(/C=C2\N=C3SCCCN3C2=O)cc1,39
5,CCOC(=O)C1CN2C(=NC(=O)C2(c2ccccc2)c2ccccc2)S1 (configuration not stated),26
6,CN(C)c1ccc(/C=C2\N=C3SCCCN3C2=O)cc1,29

# Target: T2, G-protein coupled receptor 55
# Test: Agonist activity at human GPR55 expressed in CHO cells assessed as induction of LPI-induced beta-arrestin recruitment by beta-galactosidase enzyme fragment complementation method relative to LPI
# Assay type: cell-based
# Design: concentration or dose not given beside the values
row,SMILES,Activity [%]
1,COc1ccc(/C=C2\N=C3SCCCN3C2=O)cc1OC,6
2,COc1ccccc1/C=C1\N=C2SCCCN2C1=O,12
3,COc1ccc(/C=C2\N=C3SCCCN3C2=O)cc1,37
4,CCOC(=O)C1CN2C(=NC(=O)C2(c2ccccc2)c2ccccc2)S1 (configuration not stated),58
5,CN(C)c1ccc(/C=C2\N=C3SCCCN3C2=O)cc1,20

# Target: T5, N-arachidonyl glycine receptor (Homo sapiens, UniProt Q14330)
# T5 sequence (Q14330 whole entry): T1 sequence (whole entry)
# Test: Antagonist activity against human GPR18 expressed in CHO cells assessed as reduction in delta9-THC-induced beta-arrestin recruitment by beta-galactosidase enzyme fragment complementation method
# Assay type: cell-based
row,SMILES,IC50 [µM]
1,CCCCC/C=C\C/C=C\C/C=C\C/C=C\CCCC(=O)NCC(=O)O [ARACHIDONOYL GLYCINE],> 10
2,COc1ccc(/C=C2\N=C3SCCCN3C2=O)cc1OC,> 10
3,COc1ccccc1/C=C1\N=C2SCCCN2C1=O,> 10
4,COc1ccc(/C=C2\N=C3SCCCN3C2=O)cc1,> 10
5,CCOC(=O)C1CN2C(=NC(=O)C2(c2ccccc2)c2ccccc2)S1 (configuration not stated),> 10
6,CN(C)c1ccc(/C=C2\N=C3SCCCN3C2=O)cc1,> 10

# Target: T4, Cannabinoid receptor 1
# Test: Displacement of [3H]CP55,940 from human recombinant CB1 receptor expressed in CHO-K1 cells
# Assay type: cell-based
row,SMILES,Ki [µM]
1,CCCCC/C=C\C/C=C\C/C=C\C/C=C\CCCC(=O)NCC(=O)O [ARACHIDONOYL GLYCINE],> 10
2,COc1ccc(/C=C2\N=C3SCCCN3C2=O)cc1OC,> 10
3,COc1ccccc1/C=C1\N=C2SCCCN2C1=O,> 10
4,COc1ccc(/C=C2\N=C3SCCCN3C2=O)cc1,> 10
5,CCOC(=O)C1CN2C(=NC(=O)C2(c2ccccc2)c2ccccc2)S1 (configuration not stated),> 10
6,CN(C)c1ccc(/C=C2\N=C3SCCCN3C2=O)cc1,> 10

# Target: T1, N-arachidonyl glycine receptor (Homo sapiens)
# Test: Agonist activity at human GPR18 expressed in CHO cells assessed as induction of beta-arrestin recruitment by beta-galactosidase enzyme fragment complementation method relative to delta9-THC
# Assay type: cell-based
# Design: concentration or dose not given beside the values
row,SMILES,Activity [%]
1,COc1ccc(/C=C2\N=C3SCCCN3C2=O)cc1OC,0
2,COc1ccccc1/C=C1\N=C2SCCCN2C1=O,0
3,COc1ccc(/C=C2\N=C3SCCCN3C2=O)cc1,0
4,CCOC(=O)C1CN2C(=NC(=O)C2(c2ccccc2)c2ccccc2)S1 (configuration not stated),7
5,CN(C)c1ccc(/C=C2\N=C3SCCCN3C2=O)cc1,17

# Target: Cannabinoid receptor 1 (Rattus norvegicus) (UniProt P20272)
# Sequence (P20272 whole entry): as the sequence (P20272 whole entry) above
# Test: Displacement of [3H]CP55,940 from CB1 receptor in rat brain cortical membranes at 10 uM
# Assay type: cell membranes
row,SMILES,inhibition [%]
1,COc1ccc(/C=C2\N=C3SCCCN3C2=O)cc1OC,3
2,COc1ccccc1/C=C1\N=C2SCCCN2C1=O,4
3,COc1ccc(/C=C2\N=C3SCCCN3C2=O)cc1,5
4,CCOC(=O)C1CN2C(=NC(=O)C2(c2ccccc2)c2ccccc2)S1 (configuration not stated),0
5,CN(C)c1ccc(/C=C2\N=C3SCCCN3C2=O)cc1,6

# From ChEMBL document CHEMBL3217528, “Bicyclic imidazole-4-one derivatives: a new class of antagonists for the orphan G protein-coupled receptors GPR18 and GPR55” (Medchemcomm, 2014)
